Measurements taken from patent publication US20240115589A1, “PHARMACEUTICAL COMPOSITION FOR PREVENTING CYTOKINE STORM” (KINKI UNIVERSITY, priority 2021, published 2024).

Legend:
IL-6 mRNA [1] = assay: LPS-stimulated IL-6 mRNA expression in mouse macrophages (real time PCR); assay type: cell-based; settings: then 10 μg/mL LPS 4 h, vs LPS-treated group
Description: (§1) Mouse macrophages were pre-cultured with RPMI1640 medium for 1 day. After incubation, mouse macrophages were treated with 10 μM mangiferin 8a, 10 μM norathyriol, 1 μM M9, and 1 μM M14 for 1 day. Then, 10 μg/mL LPS was added to mouse macrophages and cultured for 4 h. After incubation, cells were collected, RNA was extracted, and TNFα mRNA expression was measured by real time PCR.
The inhibitory effect of compounds on IL-6 mRNA expression involved in cytokine storm was examined using mouse macrophages.
The experimental procedure is the same as in Example 3. […] For controls, only 0.5% DMSO (diluted in PBS) used to dissolve the compounds was added. 10 μg/mL LPS administered is called the LPS-treated group, LPS and mangiferin 8a administered in combination is called the mangiferin 8a-treated group, LPS and norathyriol administered in combination is called the norathyriol group, LPS and M9 administered in combination is called the M9-treated group, LPS and M14 administered in combination is called the M14-treated group, respectively.

IL-6 mRNA [2] = assay: LPS-stimulated IL-6 mRNA expression in mouse B cells (real time PCR); assay type: cell-based; settings: then 10 μg/mL LPS 4 h, vs LPS-treated group
Description: as §1, with “B cells” for “macrophages”
The inhibitory effect of compounds on IL-6 mRNA expression involved in cytokine storm was examined using mouse B cells. The experimental procedure is the same as in Example 1.
(§2) For controls, only 0.5% DMSO (diluted in PBS) used to dissolve the compounds was added. 10 μg/mL LPS administered is called the LPS-treated group, LPS and mangiferin 8a administered in combination is called the mangiferin 8a-treated group, LPS and norathyriol administered in combination is called the norathyriol group, LPS and M9 administered in combination is called the M9-treated group, LPS and M14 administered in combination is called the M14-treated group, respectively.

TNFα mRNA [3] = assay: LPS-stimulated TNFα mRNA expression in mouse B cells (real time PCR); assay type: cell-based; settings: then 10 μg/mL LPS 4 h, vs LPS-treated group
Description: The inhibitory effect of compounds on TNFα mRNA expression involved in cytokine storm was examined using mouse B cells.
as §1, with “B cells” for “macrophages”
as §2

male C57BL/6J = assay: Survival rate of mice treated with compound and LPS (lethality in cytokine storm); assay type: in vivo; settings: C57BL/6J mice, 25 mg/kg LPS i.p. 5 min later, day 2, compared to LPS group
Description: Six-week-old male C57BL/6J (SHIMIZU Laboratory Supplies Co., Ltd.) were orally administered 50 mg/kg mangiferin 8a, 100 mg/kg norathyriol, 50 mg/kg M9, and 50 mg/kg M14. Five minutes later, 25 mg/kg LPS was administered intraperitoneally. The day of administration was set as day 0, and the survival rate was measured on day 2.
(§3) Those not receiving the compound and LPS are referred to as the control group, those receiving 25 mg/kg LPS are referred to as the LPS group, those receiving 50 mg/kg mangiferin 8a and 25 mg/kg LPS are referred to as the mangiferin 8a-treated group, those receiving 100 mg/kg norathyriol and 25 mg/kg LPS are referred to as the norathyriol-treated group, those receiving 50 mg/kg M9 and 25 mg/kg LPS are referred to as the M9-treated group, and those receiving 50 mg/kg M14 and 25 mg/kg LPS are referred to as the M14-treated group.
Referring to FIG. 9, the horizontal axis indicates compound treatment, and the vertical axis indicates survival rate (%).

IL-6 [4] = assay: LPS-stimulated IL-6 production in mouse B cells (ELISA); assay type: cell-based; settings: culture supernatant, then 10 μg/mL LPS 2 days, control 9.46, LPS alone 246.13 pg/mL
Description: The inhibitory effect of compounds on IL-6 production involved in cytokine storm was examined using mouse B cells.
(§4) Mouse B cells were pre-cultured with RPMI1640 medium for 1 day. After incubation, mouse B cells were treated with 10 μM mangiferin 8a, 10 μM norathyriol, 1 μM M9, and 1 μM M14 for 1 day. Then, 10 μg/mL LPS was added to mouse B cells and cultured for 2 days. After incubation, the culture supernatant was collected and IL-6 production was determined by enzyme-linked immunosorbent assay (ELISA). This measurement was performed using a mouse IL-6 ELISAkit (R&D).

IL-6 [5] = assay: LPS-stimulated IL-6 production in mouse macrophages (ELISA); assay type: cell-based; settings: culture supernatant, then 10 μg/mL LPS 2 days, control 13.13, LPS alone 321.13 pg/mL
Description: The inhibitory effect of compounds on IL-6 production involved in cytokine storm was examined using mouse macrophages.
as §4, with “macrophages” for “B cells”, “ELISA kit” for “ELISAkit”

TNFα [6] = assay: LPS-stimulated TNFα production in mouse macrophages (ELISA); assay type: cell-based; settings: culture supernatant, then 10 μg/mL LPS 2 days, control 24.11, LPS alone 421.13 pg/mL
Description: The inhibitory effect of compounds on TNFα production involved in cytokine storm was examined using mouse macrophages.
as §4, with “macrophages” for “B cells”, “TNFα” for “IL-6”, “TNFα ELISA kit” for “IL-6 ELISAkit”

TNFα [7] = assay: LPS-stimulated TNFα production in mouse B cells (ELISA); assay type: cell-based; settings: culture supernatant, then 10 μg/mL LPS 2 days, control 15.13, LPS alone 296.31 pg/mL
Description: The inhibitory effect of compounds on TNFα production involved in cytokine storm was examined using mouse B cells.
as §4, with “TNFα” for “IL-6”, “TNFα ELISA kit” for “IL-6 ELISAkit”

TNFα mRNA [8] = assay: LPS-stimulated TNFα mRNA expression in mouse macrophages (real time PCR); assay type: cell-based; settings: then 10 μg/mL LPS 4 h, vs LPS-treated group
Description: The inhibitory effect of compounds on TNFα mRNA expression involved in cytokine storm was examined using mouse macrophages.
as §1, §2

IL-6 [9] = assay: Serum IL-6 production in mice treated with compound and LPS (ELISA); assay type: in vivo; settings: C57BL/6J mice, 25 mg/kg LPS i.p., serum 2 hours after LPS, control 2.75, LPS alone 20.1 ng/mL
Description: (§5) Six-week-old male C57BL/6J (Shimizu experimental material) was orally administered 100 mg/kg norathyriol, 50 mg/kg M9, and 50 mg/kg M14. Five minutes later, 25 mg/kg LPS was administered intraperitoneally. Serum was collected from mice 2 hours after LPS administration, and the amount of IL-6 production involved in the cytokine storm was measured by enzyme-linked immunosorbent assay (ELISA). This measurement was performed using a mouse IL-6 ELISA kit (R&D).
as §3, with “LPS” for “LPS group, those receiving 50 mg/kg mangiferin 8a and 25 mg/kg LPS are referred to as the mangiferin 8a-treated”

TNFα [10] = assay: Serum TNFα production in mice treated with compound and LPS (ELISA); assay type: in vivo; settings: C57BL/6J mice, 25 mg/kg LPS i.p., serum 2 hours after LPS, control 1.55, LPS alone 10.28 ng/mL
Description: as §5, with “TNFα” for “IL-6”
as §3, with “LPS” for “LPS group, those receiving 50 mg/kg mangiferin 8a and 25 mg/kg LPS are referred to as the mangiferin 8a-treated”

Row | SMILES | LPS-induced IL-6 mRNA expression (ratio to GAPDH mRNA) (IL-6 mRNA [1]; 10 μM compound 1 day) | LPS-induced IL-6 mRNA expression (ratio to GAPDH mRNA) (IL-6 mRNA [2]; 10 μM compound 1 day) | LPS-induced TNFα mRNA expression (ratio to GAPDH mRNA) (TNFα mRNA [3]; 10 μM compound 1 day) | survival rate (male C57BL/6J; 50 mg/kg oral) | IL-6 production (IL-6 [4]; 10 μM compound 1 day) [pg/mL] | IL-6 production (IL-6 [5]; 10 μM compound 1 day) [pg/mL] | TNFα production (TNFα [6]; 10 μM compound 1 day) [pg/mL] | TNFα production (TNFα [7]; 10 μM compound 1 day) [pg/mL] | LPS-induced TNFα mRNA expression (ratio to GAPDH mRNA) (TNFα mRNA [8]; 10 μM compound 1 day) | LPS-induced IL-6 mRNA expression (ratio to GAPDH mRNA) (IL-6 mRNA [1]; 1 μM compound 1 day) | LPS-induced IL-6 mRNA expression (ratio to GAPDH mRNA) (IL-6 mRNA [2]; 1 μM compound 1 day) | LPS-induced TNFα mRNA expression (ratio to GAPDH mRNA) (TNFα mRNA [3]; 1 μM compound 1 day) | IL-6 production in serum (IL-6 [9]; 50 mg/kg oral) [ng/mL] | IL-6 production (IL-6 [4]; 1 μM compound 1 day) [pg/mL] | TNFα production in serum (TNFα [10]; 50 mg/kg oral) [ng/mL] | IL-6 production (IL-6 [5]; 1 μM compound 1 day) [pg/mL] | TNFα production (TNFα [6]; 1 μM compound 1 day) [pg/mL] | TNFα production (TNFα [7]; 1 μM compound 1 day) [pg/mL] | LPS-induced TNFα mRNA expression (ratio to GAPDH mRNA) (TNFα mRNA [8]; 1 μM compound 1 day) | also measured
1 | CCC(=O)OC[C@H]1O[C@@H](c2c(O)cc3oc4cc(O)c(O)cc4c(=O)c3c2OC(=O)CC)[C@H](OC(=O)CC)[C@@H](OC(=O)CC)[C@@H]1OC(=O)CC [mangiferin 8a, 1,2′,3′,4′,6′-penta-O-propionylmangiferin] | decrease in LPS-induced IL-6 mRNA expression | decrease in LPS-induced IL-6 mRNA expression | decrease in LPS-induced TNFα mRNA expression | significantly reduced the decrease in survival | 54.13 | 69.16 | 65.13 | 59.31 | decrease in LPS-induced TNFα mRNA expression |  |  |  |  |  |  |  |  |  |  | 
2 | O=c1c2cc(O)c(O)cc2oc2cc(O)cc(O)c12 [norathyriol, 1,3,6,7-tetrahydroxyxanthone] | decrease in LPS-induced IL-6 mRNA expression | decrease in LPS-induced IL-6 mRNA expression | decrease in LPS-induced TNFα mRNA expression |  | 56.13 | 64.13 | 68.13 | 64.13 | decrease in LPS-induced TNFα mRNA expression |  |  |  |  |  |  |  |  |  |  | IL-6 production in serum (IL-6 [9]; 100 mg/kg oral): 11.37 ng/mL; survival rate (male C57BL/6J; 100 mg/kg oral): significantly reduced the decrease in survival; TNFα production in serum (TNFα [10]; 100 mg/kg oral): 2.71 ng/mL
3 | CCCC(=O)OC[C@H]1O[C@@H](c2c(O)cc3oc4cc(O)c(O)cc4c(=O)c3c2O)[C@H](OC(=O)CCC)[C@@H](OC(=O)CCC)[C@@H]1OC(=O)CCC [M14, 2′,3′,4′,6′-tetra-O-butyrylmangiferin] |  |  |  | significantly reduced the decrease in survival |  |  |  |  |  | decrease in LPS-induced IL-6 mRNA expression | decrease in LPS-induced IL-6 mRNA expression | decrease in LPS-induced TNFα mRNA expression | 14.26 | 45.13 | 5.2 | 45.13 | 54.13 | 46.13 | decrease in LPS-induced TNFα mRNA expression | 
4 | CCC(=O)OC[C@H]1O[C@@H](c2c(O)cc3oc4cc(O)c(O)cc4c(=O)c3c2O)[C@H](OC(=O)CC)[C@@H](OC(=O)CC)[C@@H]1OC(=O)CC [M9, 2′,3′,4′,6′-tetra-O-propionylmangiferin] |  |  |  | significantly reduced the decrease in survival |  |  |  |  |  | decrease in LPS-induced IL-6 mRNA expression | decrease in LPS-induced IL-6 mRNA expression | decrease in LPS-induced TNFα mRNA expression | 15.15 | 45.12 | 5.68 | 49.46 | 58.13 | 55.13 | decrease in LPS-induced TNFα mRNA expression | 
